Test results from US11312737B2, “Amide-linked EP4 agonist-bisphosphonate compounds and uses thereof” (SIMON FRASER UNIVERSITY, priority 2015, dated 2022).

Legend:
leukocytes = assay: Neutrophil function effects; format: cell-based; conditions: for activity in leukocytes (neutrophil function) / neutrophil speed: FIG. 13
[1] = Stability of conjugate compounds in rat plasma; conditions: fresh rat plasma, 37° C., 100 μg/mL
Procedure: The amide-linked conjugate compounds were examined for their stability in rat plasma. […] The mixture was then incubated at 37° C. for 24 h. Aliquots of 10 μL were removed at 0, 2, 4, 6, 7 and 24 h, mixed to 10 mg of bone powder and 10-fold diluted with water in a 0.6 mL Eppendorf tube. A gentle stirring was applied for 20 min. 50 μL were then used to count the activity.

[2] = In vivo uptake studies of tritium labelled C3, C4 and C5-conjugates 6 hours after dosing; conditions: rat; for % of the initial dose found in muscle: 6 hours after dosing; for uptake into long bones, % of initial dose: 6 hours after injection, tritium label
Procedure: The three conjugate compounds, C3, C4 and C5, were radiolabelled with tritium in the EP4 agonist moiety and used to monitor in vivo distribution in rat organs and uptake into bone after intravenous dosing.
The radioactivity in organs (heart, kidney, brain, muscle, one piece of muscle attached to bone, spleen and liver) was counted 6 hours after dosing (FIG. 3). For the C3-conjugate compound, calculations were done based on results obtained from two rats. Most of the labelled conjugate compounds were taken up into liver (65-74%), and about 1% and 0.2% were found in spleen and kidneys for all labelled conjugate compounds, after 6 hours. About 0.2% of the initial dose of the C4 and C5-conjugate compounds, and 2% of the C3-conjugate compound, was found in muscle. All other organs contained 0.05% of the initial dose of the conjugate compounds.
Finally, the uptake of the tritiated C3, C4 and C5-conjugate compounds into bones was counted (FIG. 4). All three conjugate compounds were well taken up into bone.

[3] = In vivo uptake and release studies of tritium labelled C3-conjugate over 28 days; conditions: rat
Procedure: In vivo uptake and release studies using tritium labelled C3-conjugate compound were performed. After intravenous dosing of 1-5 μCi/5 mg/kg of [^3H]-C3 to 15 rats, groups of 3 rats were euthanized at each time point a at t=6 h, 24 h, 7 d, 14 d, 28 d). The radioactivity in blood samples, spleen, liver and long bones was counted for each group of rats. […] After one week, 53% of label was eliminated and only traces were detected after 28 days (FIG. 6). In spleen, the counted radioactivity decreased from 1% 6 hours after dosing to 0.4% at t=28 days (FIG. 6).

In the case of `NCCCC(O)(P(=O)(O)O)P(=O)(O)O` [alendronate, 4-amino-1-hydroxybutylidene-1,1-bisphosphonic acid monosodium trihydrate, reference compound], the “activity in leukocytes (neutrophil function)” value (from here on “activity in leukocytes”) (leukocytes) is reported as “active”.
With `CCOC(=O)CCCCCCN1C(=O)CC[C@@H]1/C=C/[C@@H](OC(=O)Cc1ccc(C(=O)NCCCC(O)(P(=O)(O)O)P(=O)(O)O)cc1)C(F)(F)c1ccccc1` [C3-conjugate, Sodium (4-(4-(2-(((R,E)-4-((R)-1-(7-ethoxy-7-oxoheptyl)-5-oxopyrrolidin-2-yl)-1,1-difluoro-1-phenylbut-3-en-2-yl)oxy)-2-oxoethyl)benzamido)-1-hydroxybutane-1,1-diyl)bis(hydrogen phosphonate)] the “hydrolysis after 24 h-incubation” value [1] was “About 10%”, the neutrophil speed (leukocytes) was “low neutrophil speed” and the “% of the initial dose found in muscle” value [2] was about 2%. For the same molecule, the “counted radioactivity in spleen” value ([3]; 6 hours after dosing) was 1%, the “tritiated conjugate found in liver” value ([3]; 6 hours after injection) was 69% and the “tritiated conjugate in liver” value ([3]; after 24 hours) was “remained in a high proportion”. The “conjugate remained attached to bone” value ([3]; after 7 days, tritium label) was 5.5%, the “tritiated conjugate in liver” value ([3]; after 28 days) was “only traces” and the “label eliminated from liver” value ([3]; after one week) was 53%. For the same molecule, the “half-life (tritium label on bone)” value ([3]; calculated from bone data over 28 days) was “about 8 days”, the “% of the initial dose observed in bone” value ([3]; end of the study (28 days), tritium label) was 1.4% and the “activity detected in the bloodstream” value ([3]; over 28 days, tritium label) was “Very low activity”. The “counted radioactivity in spleen” value ([3]; t=28 days) was 0.4% and the clearance from plasma ([3]; tritium label) was “rapid clearance”.
For `O=C(O)Cc1ccc(C(=O)NCCCC(O)(P(=O)(O)O)P(=O)(O)O)cc1` [fragment 4, Sodium 2-(4-((4-hydroxy-4,4-bis(hydroxyoxidophosphoryl)butyl)carbamoyl)phenyl)acetate], the “biological activity compared to alendronate alone” value (leukocytes) was “biologically inactive” and the “activity in leukocytes” value (leukocytes) was “neither fragment 4 nor 5 exhibited significant activity”.
With `NCCC(O)(P(=O)(O)O)P(=O)(O)O` [pamidronate, 3-amino-1-hydroxypropylidene-1,1-bisphosphonic acid, reference compound] the “activity in leukocytes” value (leukocytes) was “active”.
For `CCOC(=O)CCCCCCN1C(=O)CC[C@@H]1/C=C/[C@@H](OC(=O)Cc1ccc(C(=O)NCCC(O)(P(=O)(O)O)P(=O)(O)O)cc1)C(F)(F)c1ccccc1` [C4-conjugate, Sodium (3-(4-(2-(((R,E)-4-((R)-1-(7-ethoxy-7-oxoheptyl)-5-oxopyrrolidin-2-yl)-1,1-difluoro-1-phenylbut-3-en-2-yl)oxy)-2-oxoethypbenzamido)-1-hydroxypropane-1,1-diyl)bis(hydrogen phosphonate)], the “activity in leukocytes” value (leukocytes) was “active”, the “% of the initial dose found in muscle” value [2] was “About 0.2%” and the “uptake into long bones, % of initial dose” value [2] was “about 10%”.
For `CCOC(=O)CCCCCCN1C(=O)CC[C@@H]1/C=C/[C@@H](OC(=O)Cc1ccc(C(=O)NCCCCCC(O)(P(=O)(O)O)P(=O)(O)O)cc1)C(F)(F)c1ccccc1` [C5-conjugate, Sodium (6-(4-(2-(((R,E)-4-((R)-1-(7-ethoxy-7-oxoheptyl)-5-oxopyrrolidin-2-yl)-1,1-difluoro-1-phenyibut-3-en-2-yl)oxy)-2-oxoethyl)benzamido)-1-hydroxyhexane-1,1-diyl)bis(hydrogen phosphonate)], the “% of the initial dose found in muscle” value [2] was “About 0.2%” and the “uptake into long bones, % of initial dose” value [2] was “about 10%”.
For `CCOC(=O)CCCCCCN1C(=O)CC[C@@H]1/C=C/[C@@H](O)C(F)(F)c1ccccc1` [EP4 agonist, ethyl 7-((R)-2-((R,E)-4,4-difluoro-3-hydroxy-4-phenylbut-1-en-1-yl)-5-oxopyrrolidin-1-yl)heptanoate], the neutrophil speed (leukocytes) was “low neutrophil speed”.
For `O=C(O)Cc1ccc(C(=O)NCCC(O)(P(=O)(O)O)P(=O)(O)O)cc1` [fragment 5, Sodium2-(4-((3-hydroxy-3,3-bis(hydroxyoxidophosphoryl)propyl)carbamoyl)phenyl)acetate], the “activity in leukocytes” value (leukocytes) was “neither fragment 4 nor 5 exhibited significant activity”.
